According to PubChem BioAssay (NCI):
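Interpolation was linear, between the two tested concentrations surrounding the appropriate level; five concentrations were tested over 48 hours in 96-well plates. TGI is the concentration that stops growth completely.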

Columns and labels:
Experiment in all cases: growth of human tumour cells (NCI), 48 h
[1] = test system: MDA-MB-231 breast
[2] = test system: CAKI-1 renal
[3] = test system: NCI/ADR-RES ovarian
[4] = test system: SF-539 CNS
[5] = test system: HOP-62 NSCLC
[6] = test system: SK-MEL-2 melanoma
[7] = test system: NCI-H522 lung
[8] = test system: OVCAR-8 ovarian
[9] = test system: A498 renal
[10] = test system: SF-268 CNS
[11] = test system: UO-31 renal
[12] = test system: HT29 colon
[13] = test system: MOLT-4 leukemia
[14] = test system: ACHN renal
[15] = test system: PC-3 prostate
[16] = test system: MDA-MB-435
[17] = test system: COLO 205 colon
[18] = test system: NCI-H460 lung
[19] = test system: BT-549 breast
[20] = test system: A549 NSCLC
[21] = test system: M14 melanoma
[22] = test system: SK-MEL-5 melanoma
[23] = test system: HCC-2998 colon
[24] = test system: MCF7 breast
[25] = test system: OVCAR-4 ovarian
[26] = test system: UACC-257 melanoma
[27] = test system: SN12C renal
[28] = test system: T-47D breast
[29] = test system: IGROV1 ovarian
[30] = test system: UACC-62 melanoma
[31] = test system: TK-10 renal
[32] = test system: SNB-75 CNS
[33] = test system: DU-145 prostate
[34] = test system: EKVX NSCLC
[35] = test system: OVCAR-5 ovarian
[36] = test system: RPMI-8226 leukemia
[37] = test system: NCI-H23 lung
[38] = test system: KM12 colon
[39] = test system: SF-295 CNS
[40] = test system: LOX IMVI melanoma
[41] = test system: SNB-19 CNS
[42] = test system: MALME-3M melanoma
[43] = test system: HCT-15 colon
[44] = test system: SR leukemia
[45] = test system: SK-MEL-28 melanoma
[46] = test system: NCI-H226 lung
[47] = test system: 786-0 renal
[48] = test system: U251 CNS
[49] = test system: SK-OV-3 ovarian
[50] = test system: MDA-N
[51] = test system: RXF 393 renal
[52] = test system: SW-620 colon
[53] = test system: K-562 leukemia
[54] = test system: HCT-116 colon
[55] = test system: OVCAR-3 ovarian
[56] = test system: HOP-92 NSCLC
[57] = test system: HS 578T breast

Measured: TGI

O=C(O)C[C@@H]1[C@@H](O)[C@@H](O)CN2C(=O)c3ccccc3[C@H]12
> 100 µM: [1] | [2] | [3] | [4] | [5] | [6] | [7] | [8] | [9] | [10] | [11] | [12] | [13] | [14] | [15] | [16] | [17] | [18] | [19] | [20] | [21] | [22] | [23] | [24] | [25] | [26] | [27] | [28] | [29] | [30] | [31] | [32] | [33] | [34] | [35] | [36] | [37] | [38] | [39] | [40] | [41] | [42] | [43] | [44] | [45] | [46] | [47] | [48] | [49] | [50] | [51] | [52] | [53] | [54]

COc1cccc(CSCC(=O)O)c1
> 100 µM: [1] | [2] | [3] | [4] | [5] | [6] | [7] | [8] | [9] | [10] | [11] | [12] | [14] | [15] | [16] | [17] | [18] | [19] | [20] | [21] | [22] | [55] | [56] | [24] | [25] | [26] | [27] | [28] | [29] | [30] | [31] | [32] | [33] | [34] | [35] | [36] | [37] | [38] | [39] | [40] | [41] | [42] | [57] | [43] | [45] | [46] | [47] | [48] | [49] | [50] | [51] | [52] | [53] | [54]
